Tested on: feline calcivirus ATCC VR-782
Details: 20 mg/L in a water based solution applied to a surface; 10 minutes exposure; non-enveloped virus
Protocol: Copper ions (20 mg/L) in a water based solution were applied to a surface with the non-enveloped feline calcivirus ATCC VR-782. […] In our case we wanted to have an idea about the rate of killing and this is why we limited the test to 10 minutes.

Substance: copper iodide
- reduction relative to the control: 82.22%
